≈ marks a conversion by molar mass, not a printed value. Like-named read-outs stand apart in the source and are kept apart here.
Tests used:
[1] = tested on: macrolide-resistant S. pneumoniae Monza-82; test: MBC determination (plating of MIC wells); type: cell-based, Streptococcus pneumoniae; conditions: for MBC: Streptococcus pneumoniae; for bactericidal activity: S. pneumoniae Monza-82 strain only
Protocol: (§1) Plates were incubated at 37 °C in aerobic conditions or in 5% CO2 atmosphere and checked for bacterial growth after 24 h.

[2] = tested on: fluoroquinolone-resistant S. aureus Monza-FD1; test: MIC, broth microdilution (CLSI); type: cell-based, Staphylococcus aureus
[3] = tested on: Escherichia coli ATCC 25922; test: MIC, broth microdilution (CLSI); type: cell-based
[4] = tested on: Enterococcus faecalis ATCC 29212; test: MIC, broth microdilution (CLSI); type: cell-based
[5] = tested on: Pseudomonas aeruginosa ATCC 27853; test: MIC, broth microdilution (CLSI); type: cell-based
[6] = tested on: macrolide-resistant S. pneumoniae Monza-82; test: MIC, broth microdilution (CLSI); type: cell-based, Streptococcus pneumoniae; conditions: for sensitivity of the strain to the compound: S. pneumoniae Monza-82
[7] = tested on: Staphylococcus aureus ATCC 29213; test: MIC, broth microdilution (CLSI); type: cell-based
[8] = tested on: fluoroquinolone-resistant S. aureus Monza-FD1; test: MBC determination (plating of MIC wells); type: cell-based; conditions: Staphylococcus aureus
Protocol: as §1

[9] = tested on: methicillin-resistant Staphylococcus aureus (MRSA) Monza-PFI; test: MIC, broth microdilution (CLSI); type: cell-based
[10] = tested on: Streptococcus pneumoniae ATCC 49619; test: MIC, broth microdilution (CLSI); type: cell-based
Klebsiella pneumoniae = tested on: Klebsiella pneumoniae; set-up: method as in PMID 16261521; conditions: cited from earlier work
P. aeruginosa = tested on: P. aeruginosa; set-up: method as in PMID 16261521; conditions: cited from earlier work
[11] = tested on: herpes simplex virus 1 (HSV-1) clinical isolate; test: Plaque reduction assay (PRA) on VERO cells; type: cell-based; conditions: 48 h p.i.
Micrococcus luteus = tested on: Micrococcus luteus; set-up: method as in PMID 16261521; conditions: cited from earlier work
bacteria = tested on: bacteria; set-up: method as in ref 20 Zin et al.; conditions: ref 20 Zin et al.; cited from earlier work
[12] = tested on: influenza A virus strain A/Puerto Rico/8/34 (IAV); test: Plaque reduction assay (PRA) on MDCK cells; type: cell-based
[13] = Cytotoxicity assay (CellTiter-Glo); conditions: dog
Protocol: (§2) African green monkey kidney cells (VERO, ATCC-American Type Culture Collection CCL-81) and Madin Darby Canine Kidney cells (MDCK, ATCC® CRL-2936™) were propagated in Dulbecco’s modified Eagle medium (DMEM; Euroclone), supplemented with 10% fetal bovine serum (FBS; Euroclone), 2 mM L-glutamine, 1 mM sodium pyruvate, 100 U/mL penicillin, and 100 μg/mL streptomycin sulfate.
(§3) The plates were incubated for 48 h at 37 °C, and then 100 μL of CellTiter-Glo reagent (Promega) was added to lyse the cells and to determine cell viability according to the producer’s instructions.

MDCK cells = test: Cytotoxicity assay (CellTiter-Glo); conditions: MDCK cells, lowest dose 12.5 µg/mL, 48 h
Protocol: as §2, §3

[14] = tested on: methicillin-resistant Staphylococcus aureus (MRSA) Monza-PFI; test: MBC determination (plating of MIC wells); type: cell-based
Protocol: as §1

[15] = tested on: Enterococcus faecalis ATCC 29212; test: MBC determination (plating of MIC wells); type: cell-based
Protocol: as §1

[16] = tested on: Staphylococcus aureus ATCC 29213; test: MBC determination (plating of MIC wells); type: cell-based
Protocol: as §1

bacteria tested = test: Bactericidal activity, whole panel (MBC); type: cell-based; conditions: most of the bacteria tested
Protocol: as §1

Gram-positive bacteria = test: MIC, summary in text for Gram-positive bacteria; conditions: majority of Gram-positive bacteria tested (except S. pneumoniae ATCC 49619)
Protocol: (§4) Representatives of Gram-positive and Gram-negative bacteria were selected for the antimicrobial susceptibility tests. Three Gram-positive reference strains (Staphylococcus aureus ATCC 29213, Streptococcus pneumoniae ATCC 49619, and Enterococcus faecalis ATCC 29212) and two Gram-negative reference strains (Escherichia coli ATCC 25922 and Pseudomonas aeruginosa ATCC 27853) were used. Furthermore, antibacterial activity of the isolated compounds was also assessed against recently isolated clinical strains, selected and characterized as resistant or multidrug-resistant (MDR), from the MicroMiB collection owned and maintained by the Laboratory of Clinical Microbiology and Virology of the University of Milano-Bicocca, Monza, Italy: a methicillin-resistant Staphylococcus aureus (MRSA) Monza-PFI, a fluoroquinolone-resistant S. aureus Monza-FD1, and a macrolide-resistant S. pneumoniae Monza-82.
(§5) MICs were determined following Clinical and Laboratory Standards Institute (CLSI) guidelines for the broth microdilution method [33]. […]
(§6) The plates were incubated at 37 °C for 18–24 h. After the incubation, each well was checked for the absence of bacterial pellets and the clearness of the solution; then, the MIC value (μg/mL), defined as the lowest concentration of antimicrobial agent causing visible inhibition of bacterial growth, was determined.

in vitro [17] = conditions: African green monkey
Protocol: as §2, §3

in vitro [18] = conditions: dog
Protocol: as §2, §3

[19] = tested on: reference strains and multidrug-resistant isolates; test: Antibacterial activity, whole panel (MIC); conditions: concentrations tested 0.015–32 μg/mL
Protocol: as §4, §5, §6

[20] = tested on: Mycobacterium tuberculosis; set-up: method as in ref 86 Ganihigama et al.; conditions: ref 86 Ganihigama et al.; cited from earlier work
S. aureus strains = test: MIC, summary in text for S. aureus strains; conditions: Staphylococcus aureus
Protocol: as §4, §5, §6

[21] = tested on: reference and MRSA S. aureus strains; set-up: method as in PMID 23024574; conditions: low concentration tested; cited from earlier work
[22] = S. pneumoniae Monza 82 (macrolide-resistant), read-out: MBC
[23] = Staphylococcus aureus, S. aureus Monza-FD1 (fluoroquinolone-resistant), read-out: MIC
[24] = ATCC25922, E. coli ATCC 25922, read-out: MIC
[25] = ATCC29212, E. faecalis ATCC 29212, read-out: MIC
[26] = ATCC27853, P. aeruginosa ATCC 27853, read-out: MIC
[27] = Streptococcus pneumoniae, S. pneumoniae Monza 82 (macrolide-resistant), read-out: MIC
[28] = ATCC29213, S. aureus ATCC 29213, read-out: MIC
[29] = S. aureus Monza-FD1 (fluoroquinolone-resistant), read-out: MBC
[30] = S. aureus Monza-PFI (MRSA), read-out: MIC
[31] = ATCC49619, S. pneumoniae ATCC 49619, read-out: MIC
[32] = Influenza A virus, MDCK, 48 h, read-out: inhibition of replication of IAV
[33] = S. aureus Monza-PFI (MRSA), read-out: MBC
[34] = ATCC29213, S. aureus ATCC 29213, read-out: MBC

Structure (SMILES) | MBC [1, 22] [µg/mL] | MIC [2, 23] [µg/mL] | MIC [3, 24] [µg/mL] | MIC [4, 25] [µg/mL] | MIC [5, 26] [µg/mL] | MIC [6, 27] [µg/mL] | MIC [7, 28] [µg/mL] | MIC [9, 30] [µg/mL] | MIC [10, 31] [µg/mL] | other results
COc1cc(O)c2c(c1)C(=O)c1cc(C)c(C(=O)O)c(O)c1C2=O [Cinnalutein (9), cinnalutein] | > 128 | 128 (≈ 390 µM) | > 128 | > 128 | > 128 | 32 (≈ 97.5 µM) | > 128 | > 128 | > 128 | MIC ([2]; S. aureus Monza-FD1 (fluoroquinolone-resistant)): 128 µg/mL (≈ 390 µM); MIC ([6]; S. pneumoniae Monza 82 (macrolide-resistant)): 32 µg/mL (≈ 97.5 µM); MBC [8, 29]: > 128 µg/mL
COc1cc(O)c2c(c1)C(=O)c1cc(C)cc(O)c1C2=O [Physcion (3), physcion] | > 32 | > 32 | > 32 | > 32 | > 32 | 16 (≈ 56.3 µM) | > 32 | > 32 | > 32 | MIC (Klebsiella pneumoniae): 250 µg/mL (≈ 879 µM); MIC (P. aeruginosa): 200 µg/mL (≈ 704 µM); inhibition at 25 µg/mL ([11]; Human alphaherpesvirus 1, compound at 25 µg/mL, read-out: inhibition of HSV-1 replication): 100%; inhibition of HSV-1 replication ([11]; compound at 25 µg/mL): total inhibition; MIC (Micrococcus luteus): 200 µg/mL (≈ 704 µM); antibacterial activity (bacteria): no antibacterial activity; sensitivity of the strain to the compound [6]: showed sensitivity; inhibition at 25 µg/mL [12, 32]: 80%
C/C=C/C=C/CCc1c(O)cc(CC=C(C)C)c(O)c1C=O [Isodihydroauroglaucin (6), isodihydroauroglaucin] |  |  | > 128 | 64 (≈ 213 µM) | > 128 |  | 64 (≈ 213 µM) |  | > 128 | MBC [1]: 16 µg/mL (≈ 53.3 µM); MIC ([2]; Staphylococcus aureus): 32 µg/mL (≈ 107 µM); CC50 at 48 h [13]: < 12.5 µg/mL; cell toxicity (not toxic = at least 70% cell viability) (MDCK cells): toxic; MIC ([6]; Streptococcus pneumoniae): 4 µg/mL (≈ 13.3 µM); MBC ([14]; MRSA): 128 µg/mL (≈ 426 µM); MBC ([15]; ATCC29212): > 128 µg/mL; MBC ([16]; ATCC29213): 128 µg/mL (≈ 426 µM); MBC [8]: 64 µg/mL (≈ 213 µM); bactericidal activity (bacteria tested): bactericidal activity; MIC ([9]; MRSA): 64 µg/mL (≈ 213 µM); MIC values range (Gram-positive bacteria): 4 to 64 µg/mL
C=CC(C)(C)c1[nH]c2c(CC=C(C)C)cc(CC=C(C)C)cc2c1C[C@@H]1NC(=O)[C@H](C)NC1=O [Echinulin (1), echinulin] |  |  |  |  |  |  |  |  |  | MIC ([2]; Staphylococcus aureus): > 128 µg/mL; MIC ([3]; ATCC25922): > 128 µg/mL; MIC ([4]; ATCC29212): > 128 µg/mL; MIC ([5]; ATCC27853): > 128 µg/mL; MIC ([6]; Streptococcus pneumoniae): > 128 µg/mL; MIC ([7]; ATCC29213): > 128 µg/mL; MIC ([9]; MRSA): > 128 µg/mL; MIC ([10]; ATCC49619): > 128 µg/mL
CCCCCCCc1c(O)cc(CC=C(C)C)c(O)c1C=O [Flavoglaucin (5), flavoglaucin] |  | > 32 | > 32 | > 32 | > 32 | > 32 | > 32 | > 32 | > 32 | CC50 at 48 h (in vitro [17]): < 12.5 µg/mL; CC50 at 48 h (in vitro [18]): < 12.5 µg/mL; antibacterial activity [19]: did not show antibacterial activity
CN(C)[C@@H]1C(O)=C(C(N)=O)C(=O)[C@@]2(O)C(O)=C3C(=O)c4c(O)cccc4[C@@](C)(O)[C@H]3C[C@@H]12 [Tetracycline, tetracycline, reference compound] |  | 1 (≈ 2.25 µM) | 1 (≈ 2.25 µM) | 8 (≈ 18 µM) | 8 (≈ 18 µM) | ≤ 0.06 | 0.12 (≈ 0.27 µM) | 1 (≈ 2.25 µM) | 0.12 (≈ 0.27 µM) | 
COc1cc(O)cc2cc3c(c(O)c12)C(=O)C[C@](C)(O)C3 [Asperflavin (8), asperflavin] | 128 (≈ 444 µM) | 64 (≈ 222 µM) | > 128 | > 128 | > 128 | 32 (≈ 111 µM) | 64 (≈ 222 µM) | 128 (≈ 444 µM) | > 128 | bactericidal activity [1]: positive results; MIC [20]: 25 µg/mL (≈ 86.7 µM); MIC (S. aureus strains): 64 µg/mL (≈ 222 µM); MBC [14, 33]: > 128 µg/mL; MBC [16, 34]: > 128 µg/mL; MBC [8, 29]: > 128 µg/mL
C=CC(C)(C)c1[nH]c2cc(CC=C(C)C)ccc2c1/C=C1\NC(=O)[C@H](C)NC1=O [Neoechinulin D (7), neoechinulin D] | > 128 | > 128 | > 128 | > 128 | > 128 | 64 (≈ 163 µM) | > 128 | > 128 | > 128 | inhibition at 50 µg/mL ([11]; Human alphaherpesvirus 1, compound at 50 µg/mL, read-out: inhibition of HSV-1 replication): 100%; inhibition of HSV-1 replication ([11]; compound at 50 µg/mL): total inhibition; sensitivity of the strain to the compound [6]: showed sensitivity; inhibition at 50 µg/mL [12, 32]: 70%
CC[C@H]1OC(=O)[C@H](C)[C@@H](O[C@H]2C[C@@](C)(OC)[C@@H](O)[C@H](C)O2)[C@H](C)[C@@H](O[C@@H]2O[C@H](C)C[C@H](N(C)C)[C@H]2O)[C@](C)(O)C[C@@H](C)C(=O)[C@H](C)[C@@H](O)[C@]1(C)O [Erythromycin, erythromycin, reference compound] |  | 0.5 (≈ 0.681 µM) |  | 2 (≈ 2.73 µM) |  | 16 (≈ 21.8 µM) | 0.5 (≈ 0.681 µM) | 8 (≈ 10.9 µM) | 0.12 (≈ 0.164 µM) | 
C[C@@H]1NC(=O)[C@H](Cc2c[nH]c3ccccc23)NC1=O [Cyclo-L-Trp-L-Ala (10), cyclo-L-Trp-L-Ala] |  | > 128 | > 128 | > 128 | > 128 | > 128 | > 128 | > 128 | > 128 | 
CNC(C)C1CCC(N)C(OC2C(N)CC(N)C(OC3OCC(C)(O)C(NC)C3O)C2O)O1 (stereo not shown) [Gentamicin, reference compound] |  | 1 (≈ 2.09 µM) | 0.5 (≈ 1.05 µM) | > 128 | 1 (≈ 2.09 µM) |  | 0.5 (≈ 1.05 µM) | > 128 |  | 
CCC/C=C/C=C/c1c(O)cc(CC=C(C)C)c(O)c1C=O [Dihydroauroglaucin (4), dihydroauroglaucin] | 32 (≈ 107 µM) | 128 (≈ 426 µM) | > 128 | 64 (≈ 213 µM) | > 128 | 8 (≈ 26.6 µM) | 128 (≈ 426 µM) | 128 (≈ 426 µM) | > 128 | bactericidal activity [1]: positive results; inhibition of replication of IAV [12]: completely inhibited; inhibition at 25 µg/mL [12, 32]: 100%; MIC (S. aureus strains): 128 µg/mL (≈ 426 µM); antibacterial activity [21]: inactive; MBC [14, 33]: > 128 µg/mL; MBC ([15]; ATCC29212, E. faecalis ATCC 29212, read-out: MBC): > 128 µg/mL; MBC [16, 34]: > 128 µg/mL; MBC [8, 29]: > 128 µg/mL
CC(=O)O[C@H]1C[C@@]2(C)[C@@H](C[C@@H](O)[C@H]3[C@@]4(C)CC[C@@H](O)[C@@H](C)[C@@H]4CC[C@@]32C)/C1=C(\CCC=C(C)C)C(=O)O [Fusidic acid, fusidic acid, reference compound] |  |  |  | 4 (≈ 7.74 µM) |  |  | 0.12 (≈ 0.232 µM) |  | 4 (≈ 7.74 µM) | 

Reference: article PMC6520677, “Marine Fungi from the Sponge Grantia compressa: Biodiversity, Chemodiversity, and Biotechnological Potential” (Marine Drugs, 2019)
